“Also recorded” adds a separate entry of the source. Where no end group is shown, it is not given here.
Legend:
[1] = target: β-wrapin AS10; settings: cited from earlier work
Excerpt: We have previously observed β-hairpins in amyloid-β (Aβ), α-synuclein (αSyn), and islet amyloid polypeptide (IAPP), amyloidogenic proteins associated with AD, PD, and T2D, respectively (Fig. 2), [38], [39]. These β-hairpins are established upon binding to engineered binding proteins termed β-wrapins. β-Wrapins are selected from protein libraries based on ZAβ3, an affibody with high affinity for monomeric Aβ [37], [39], [40], [41], [42]. β-Hairpin structures of Aβ, αSyn and IAPP have been determined by NMR spectroscopy of their complexes with ZAβ3 and the β-wrapins AS69 and ...

[2] = Thioflavin T (ThT) aggregation assay; type: physicochemical
Protocol: All ThT aggregation assays were done in Greiner 96-well half-area, clear bottom, low-binding plates. The measurements themselves were done in a BMG CLARIOstar plate reader at 37 °C and 300 rpm shaking in orbital mode with one glass bead (0.75–1 mm, Roth) per well. Wells with samples were always surrounded by wells filled with liquid, either other samples or 150 μl water, to counter potential artefacts due to evaporation. […] Final concentrations of 25 µM ThT and 0.04% sodium azide (NaN3) were added. The plate was sealed with sealing tape and put into the plate reader, heated to 37 °C, and ThT fluorescence was read in 1000 cycles of 300 s each using bottom optics with excitation at 448 nm (10 nm bandwidth) and emission at 482 nm (10 nm bandwidth). […] Samples contained 40 µM ThT and 0.04% NaN3.
Fig. 4 Test set of eight protein segments. (A) List of the investigated peptides. Underlined stretches in the peptide sequences correspond to the predicted amyloidogenic β-hairpins. A peptide was considered ‘soluble’ when no visible precipitation occurred upon dissolution of the lyophilized peptide in 20 mM NaPi, pH 7.4, 50 mM NaCl, to a final concentration of 20 µM. […] (B) Conformations of investigated segments (red) in the context of their source proteins.

[3] = test system: SEM1(86−107); assay: ThT aggregation assay and AFM of SEM1(86−107) in presence of added peptide; type: biochemical, human
Protocol: (§1) All ThT aggregation assays were done in Greiner 96-well half-area, clear bottom, low-binding plates. The measurements themselves were done in a BMG CLARIOstar plate reader at 37 °C and 300 rpm shaking in orbital mode with one glass bead (0.75–1 mm, Roth) per well. Wells with samples were always surrounded by wells filled with liquid, either other samples or 150 μl water, to counter potential artefacts due to evaporation. […] Final concentrations of 25 µM ThT and 0.04% sodium azide (NaN3) were added. The plate was sealed with sealing tape and put into the plate reader, heated to 37 °C, and ThT fluorescence was read in 1000 cycles of 300 s each using bottom optics with excitation at 448 nm (10 nm bandwidth) and emission at 482 nm (10 nm bandwidth). […] PAP(248−286) and SEM1(86−107) were kept at constant concentrations of 500 and 300 µM, respectively. […] Samples contained 40 µM ThT and 0.04% NaN3.
(§2) For AFM imaging, 2 μl samples were taken out of the wells at the end of the ThT aggregation assays, put onto a freshly cleaved muscovite mica surface and dried during incubation for 10 min under the clean bench. Subsequently, the samples were washed with 100 μl ddH2O in three steps and dried with a stream of N2 gas. Imaging was performed in intermittent contact mode (AC mode) in a JPK NanoWizard 3 atomic force microscope using a silicon cantilever with silicon tip (OMCL-AC160TS-R3, Olympus) with a typical tip radius of 9 ± 2 nm, a force constant of 26 N/m and resonance frequency around 300 kHz. The images were processed using JPK DP Data Processing Software (version spm-5.0.84).

[4] = target: β-wrapin AS10; assay: Isothermal titration calorimetry (ITC) of peptide binding to AS10; settings: 30 °C, 30 µM AS10 in cell, peptide titrated from syringe, 20 mM sodium phosphate, pH 7.4, 50 mM NaCl, 1:1 binding model, read-out: Affinity to AS10 (dissociation constant KD)
Protocol: ITC was performed at 30 °C using a Microcal iTC200 calorimeter (GE Healthcare). AS10 was filled into the cell at a concentration of 30 µM in 20 mM sodium phosphate, pH 7.4, 50 mM NaCl. Peptides were titrated from the syringe in approximately 10-fold higher concentrations. Heats of post-saturation injections were averaged and subtracted from each injection to correct for heats of dilution and mixing. Dissociation constants were obtained from a nonlinear least-squares fit to a 1:1 binding model using MicroCal Origin.

[5] = test system: PAP(248−286); assay: ThT aggregation assay and AFM of PAP(248−286) in presence of added peptide; type: biochemical, human
Protocol: as §1, §2

[6] = Atomic force microscopy (AFM) of samples at the end of ThT aggregation assays; type: physicochemical
Protocol: as §2

Substance	Affinity for β-wrapin AS10 [1]	ThT fluorescence time course ([2]; 20–25 µM peptide, 20 mM NaPi, pH 7.4, 50 mM NaCl, 37 °C, 25 µM ThT, triplicate)	Peptide concentration sufficient for amyloid formation ([2]; ThT assay, Fig. 5D (550 µM, 20 mM NaPi, pH 7.4, 50 mM NaCl)) [mM]	ThT ([2]; peptide 20–550 µM, up to 85 h, 20 mM NaPi, pH 7.4, 50 mM NaCl, 37 °C, 300 rpm, glass bead, 25 µM ThT, triplicate)	ThT fluorescence of peptide alone ([2]; peptide alone 25–100 µM (up to 100 µM), 50 mM Tris, pH 8.5, 37 °C, 40 µM ThT)	ThT fluorescence time course ([2]; peptide increased to 500–550 µM, 20 mM NaPi, pH 7.4, 50 mM NaCl, 37 °C, 25 µM ThT, triplicate)	Effect of added peptide on ThT time trace of SEM1(86−107) ([3]; 300 µM SEM1(86−107), added peptide 25–100 µM, 50 mM Tris, pH 8.5, 37 °C, 40 µM ThT)	AFM morphology after co-incubation with SEM1(86−107) ([3]; AFM at end of aggregation assay, 300 µM SEM1(86−107) with PAP(185−208))	Kd [4] [µM]	Effect of added peptide on ThT time trace of PAP(248−286) ([5]; 500 µM PAP(248−286), added peptide 25–100 µM, 50 mM Tris, pH 8.5, 37 °C, 40 µM ThT)	AFM morphology after co-incubation with PAP(248−286) ([5]; AFM at end of aggregation assay, 500 µM PAP(248−286) with PAP(185−208))	AFM aggregate morphology ([6]; end of ThT aggregation assay in 20 mM NaPi, pH 7.4, 50 mM NaCl, dried on mica)	AFM aggregate morphology of individual peptide ([6]; end of ThT assay at moderate peptide concentrations without ThT fluorescence, 50 mM Tris, pH 8.5)
Aβ: amyloid-β, amyloidogenic protein associated with AD	sub-micromolar	–	–	–	–	–	–	–	–	–	–	–	–
IAPP: islet amyloid polypeptide, amyloidogenic protein associated with T2D (KCNTATCATQRLANFLVHSSNNFGAILSSTNVGSNTY; Islet amyloid polypeptide; UniProt P10997 34-70, looked up)	sub-micromolar	–	–	–	–	–	–	–	–	–	–	–	–
KDFIATLGKLSGLHGQDLFGIWSK [PAP(185−208)]	–	no increase in fluorescence intensity was detected	> 0.5	+	did not exhibit ThT fluorescence; also recorded: do not exhibit ThT fluorescene	exhibited ThT fluorescence	ThT time traces featuring a lag-time and a phase of rapid growth indicative of amyloid formation	shift to fibrillar aggregate morphology	39 ± 5	ThT time traces featuring a lag-time and a phase of rapid growth indicative of amyloid formation	shift to fibrillar aggregate morphology	fibrillar aggregates confirming amyloid formation were detected	aggregates of amorphous shape

Source: article PMC10787225 (Computational and Structural Biotechnology Journal, 2023)
